From PMC6711126, “Novel 2-phenoxypyrido[3,2-b]pyrazin-3(4H)-one derivatives as potent and selective aldose reductase inhibitors with antioxidant activity” (Journal of Enzyme Inhibition and Medicinal Chemistry, 2019)
Several values for one entry are separate records, joined by “and”; a condition that tells them apart may be missing. Identical values can stand only once.

Columns and labels:
[1] = molecular target: T1, AKR1A1 isolated from rat kidneys (Rattus norvegicus, UniProt P51635); assay: AKR1A1 (aldehyde reductase) inhibition, NADPH oxidation with sodium D-glucuronate as substrate; type: biochemical; settings: rat kidney enzyme, pH 7.2, 37 °C
T1 construct: aldehyde reductase (AKR1A1) isolated from rat kidneys; from tissue; host or cells: rat kidneys
T1 sequence (P51635 1-325): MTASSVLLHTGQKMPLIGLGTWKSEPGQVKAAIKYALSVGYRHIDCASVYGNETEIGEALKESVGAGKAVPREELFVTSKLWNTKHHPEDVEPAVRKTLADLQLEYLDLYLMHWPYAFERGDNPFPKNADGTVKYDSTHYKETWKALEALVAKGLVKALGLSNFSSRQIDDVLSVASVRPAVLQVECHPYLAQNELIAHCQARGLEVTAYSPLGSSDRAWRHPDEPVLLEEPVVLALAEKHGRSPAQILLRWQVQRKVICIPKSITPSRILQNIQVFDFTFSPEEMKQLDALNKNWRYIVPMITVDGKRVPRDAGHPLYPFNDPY
Method: (§1) All new synthetic compounds 4a–o were tested for their potential inhibitory activity of AKR1B1 isolated from rat lenses. Besides, the inhibitory activity of aldehyde reductase (AKR1A1) isolated from rat kidneys was also investigated to evaluate the selectivity for AKR1B1. The enzyme AKR1A1 is closely related to AKR1B1, and plays an important role in physiological detoxification. […] Additionally, the antioxidant activity was assessed by using the model reaction with the stable free radical of 2,2-diphenyl-1-picrylhydrazyl (DPPH) according to the modified method, which was first employed by Blois[23].
The AKR1A1 inhibition activity was performed in a reaction mixture containing 0.25 mL NADPH (0.12 mM), 0.1 mL enzyme extract, 0.25 mL sodium phosphate buffer (pH = 7.2, 0.1 M), 0.15 mL deionized water, and 0.25 mL sodium D-glucuronate (20 mM) as substrate in a final volume of 1 mL. Before adding to sodium D-glucuronate, the reaction mixture was incubated at 37 °C for 10 min, and then the substrate was added to start the reaction, which was monitored for 4 min.
(§2) The inhibitory activity of the newly synthesized compounds against AKR1B1 and AKR1A1 was assayed by adding 5 μL of the inhibitor solution to the reaction mixture described above. All compounds were dissolved in dimethyl sulfoxide (DMSO) and diluted with deionized H2O. To correct for the nonenzymatic oxidation of NADPH, the rate of NADPH oxidation in the presence of all the reaction mixture components except the substrate was subtracted from each experimental rate. The inhibitory effect of the synthetic compounds was routinely estimated at 10^-4 M (the concentration is referenced to that of the compound in the reaction mixture).

[2] = molecular target: T2, AKR1B1 isolated from rat lenses (Rattus norvegicus, UniProt P07943); assay: AKR1B1 (aldose reductase) inhibition, NADPH oxidation with D,L-glyceraldehyde as substrate; type: biochemical; settings: rat lens enzyme, pH 6.2, 30 °C
T2 construct: AKR1B1 isolated from rat lenses; from tissue; host or cells: rat lenses
Method: as §1, with “Besides,” for “All new synthetic compounds 4a–o were tested for their potential inhibitory activity of AKR1B1 isolated from rat lenses. Besides,”
The AKR1B1 inhibition activity was performed in a reaction mixture containing 0.25 mL NADPH (0.10 mM), 0.25 mL sodium phosphate buffer (pH = 6.2, 0.1 M), 0.1 mL enzyme extract, 0.15 mL deionized water, and 0.25 mL D,L-glyceraldehyde (10 mM) as substrate in a final volume of 1 mL. Before adding to D,L-glyceraldehyde, the reaction mixture was incubated at 30 °C for 10 min, and then the substrate was added to start the reaction, which was monitored for 4 min.
as §2

[3] = DPPH radical scavenging assay; settings: methanol, 517 nm; for DPPH/sca% 100 μM: compound 100 μM; for DPPH/sca% 50 μM: compound 50 μM; for DPPH/sca% 10 μM: compound 10 μM
Method: as §1
The antioxidant activity of all synthesised compounds was determined with the DPPH model reaction and […] (Trolox) was employed as a positive control (Table 2).
To investigate the antiradical activity of target compounds in a homogeneous system, a method based on the scavenging of the stable free radical DPPH was employed. A 100 μL of methanolic solution of various compounds with different concentrations was added to 1 mL DPPH methanolic solution (2.5 × 10^-5 g/mL) and 1.9 ml methanol solution to give final concentrations of 0.1, 0.05, 0.01 mM for the tested compounds, respectively. After vortexing thoroughly and leaving for 30 min at room temperature, the optical density was measured at λ 517 nm using the Shimadzu UV-1800 spectrophotometer. The tested compounds and the reference (Trolox) were dissolved in methanol, and after 240 min (steady state), the percentage of DPPH radical scavenging was determined by the equation as shown below. The experiments were performed in triplicate.

Compound | IC50 [1] [µM] | IC50 [2] [µM] | melting point [°C] | DPPH/sca% 100 μM [3] | DPPH/sca% 50 μM [3] | DPPH/sca% 10 μM [3]
O=C(O)Cn1c(=O)c(Oc2ccccc2)nc2cccnc21 [4a, 2-(3-oxo-2-phenoxypyrido[3,2-b]pyrazin-4(3H)-yl)acetic acid] | 26.9 ± 1.45 | 8.57 ± 0.523 | 239 to 244 | 6.9 ± 1.2% |  | 
COc1ccc(Oc2nc3cccnc3n(CC(=O)O)c2=O)cc1 [4b, 2-(2-(4-methoxyphenoxy)-3-oxopyrido[3,2-b]pyrazin-4(3H)-yl)acetic acid] | 19.8 ± 1.32 | 2.68 ± 0.199 | 234 to 242 | 18.9 ± 0.8% |  | 
COc1ccc(Oc2nc3cccnc3n(CC(=O)O)c2=O)cc1OC [4c, 2-(2-(3,4-dimethoxyphenoxy)-3-oxopyrido[3,2-b]pyrazin-4(3H)-yl)acetic acid] | 17.6 ± 1.02 | 5.68 ± 0.608 | 241 to 251 | 21.2 ± 1.5% |  | 
COc1cc(OC)cc(Oc2nc3cccnc3n(CC(=O)O)c2=O)c1 [4d, 2-(2-(3,5-dimethoxyphenoxy)-3-oxopyrido[3,2-b]pyrazin-4(3H)-yl)acetic acid] | 21.5 ± 1.81 | 4.3 ± 0.288 | 241 to 247 | 25.9 ± 1.3% |  | 
COc1cc(Oc2nc3cccnc3n(CC(=O)O)c2=O)cc(OC)c1OC [4e, 2-(3-oxo-2-(3,4,5-trimethoxyphenoxy)pyrido[3,2-b]pyrazin-4(3H)-yl)acetic acid] | 20.9 ± 1.21 | 7.57 ± 0.431 | 235 to 243 | 17.8 ± 0.9% |  | 
O=C(O)Cn1c(=O)c(Oc2ccc(O)cc2)nc2cccnc21 [4f, 2-(2-(4-hydroxyphenoxy)-3-oxopyrido[3,2-b]pyrazin-4(3H)-yl)acetic acid] | 15.9 ± 0.781 | 0.121 ± 0.01 | 231 to 239 | 37.7 ± 1.0% |  | 
COc1ccc(Oc2nc3cccnc3n(CC(=O)O)c2=O)cc1O [4g, 2-(2-(3-hydroxy-4-methoxyphenoxy)-3-oxopyrido[3,2-b]pyrazin-4(3H)-yl)acetic acid] | 19.3 ± 1.81 | 2.5 ± 0.203 | 232 to 236 | 54.8 ± 1.6% | 21.5 ± 1.2% | 
O=C(O)Cn1c(=O)c(Oc2ccc(O)c(O)c2)nc2cccnc21 [4h, 2-(2-(3,4-dihydroxyphenoxy)-3-oxopyrido[3,2-b]pyrazin-4(3H)-yl)acetic acid] | 16.9 ± 0.692 | 0.305 ± 0.022 | 231 to 236 | 74.6 ± 1.4% | 44.1 ± 2.3% | 
COc1cc(O)cc(Oc2nc3cccnc3n(CC(=O)O)c2=O)c1 [4i, 2-(2-(3-hydroxy-5-methoxyphenoxy)-3-oxopyrido[3,2-b]pyrazin-4(3H)-yl)acetic acid] | 15.1 ± 0.924 | 2.85 ± 0.031 | 229 to 232 | 78.4 ± 0.7% | 45.2 ± 1.8% | 
O=C(O)Cn1c(=O)c(Oc2cc(O)cc(O)c2)nc2cccnc21 [4j, 2-(2-(3,5-dihydroxyphenoxy)-3-oxopyrido[3,2-b]pyrazin-4(3H)-yl)acetic acid] | 20.8 ± 1.5 | 0.087 ± 0.007 | 231 to 237 | 95.0 ± 0.9% | 77.2 ± 1.5% | 45.3 ± 1.9%
O=C(O)Cn1c(=O)c(Oc2cc(O)cc(O)c2)nc2cc(Cl)cnc21 [4k, 2-(7-chloro-2-(3,5-dihydroxyphenoxy)-3-oxopyrido[3,2-b]pyrazin-4(3H)-yl)acetic acid] | 18.4 ± 1.34 | 0.023 ± 0.003 | 232 to 236 | 94.8 ± 1.1% | 76.4 ± 0.9% | 49.1 ± 2.4%
O=C(O)Cn1c(=O)c(Oc2cc(O)cc(O)c2)nc2cc(Br)cnc21 [4l, 2-(7-bromo-2-(3,5-dihydroxyphenoxy)-3-oxopyrido[3,2-b]pyrazin-4(3H)-yl)acetic acid] | 19.8 ± 1.41 | 0.056 ± 0.005 | 233 to 235 | 95.3% and 95.3 ± 1.2% | 80.6% and 80.6 ± 2.0% | 46.8% and 46.8 ± 1.5%
COc1cc(Oc2nc3cccnc3n(CC(=O)O)c2=O)cc(O)c1OC [4m, 2-(2-(3-hydroxy-4,5-dimethoxyphenoxy)-3-oxopyrido[3,2-b]pyrazin-4(3H)-yl)acetic acid] | 31.6 ± 3.06 | 4.53 ± 0.258 | 237 to 244 | 56.9 ± 1.8% | 35.9 ± 1.1% | 
COc1c(O)cc(Oc2nc3cccnc3n(CC(=O)O)c2=O)cc1O [4n, 2-(2-(3,5-dihydroxy-4-methoxyphenoxy)-3-oxopyrido[3,2-b]pyrazin-4(3H)-yl)acetic acid] | 25.8 ± 1.65 | 2.36 ± 0.184 | 235 to 241 | 65.7 ± 0.9% | 40.8 ± 1.6% | 
O=C(O)Cn1c(=O)c(Oc2cc(O)c(O)c(O)c2)nc2cccnc21 [4o, 2-(3-oxo-2-(3,4,5-trihydroxyphenoxy)pyrido[3,2-b]pyrazin-4(3H)-yl)acetic acid] | 21.7 ± 1.47 | 0.859 ± 0.058 | 241 to 246 | 88.5 ± 1.4% | 65.2 ± 1.9% | 23.4 ± 2.0%
CC(/C=C1\SC(=S)N(CC(=O)O)C1=O)=C\c1ccccc1 [Epalrestat, reference compound] | 55.7 ± 3.29 |  |  |  |  | 
Cc1c(C)c2c(c(C)c1O)CCC(C)(C(=O)O)O2 (centres unmarked) [Trolox, […], reference compound] |  |  |  | 96.7 ± 0.8% | 89.8 ± 1.0% | 85.9 ± 0.6%
